Assay results taken from patent US5071965A, “Novel TC-99M complexes” (Mallinckrodt Medical, Inc., priority 1989, dated 1991).

Experiment: Biodistribution of Tc-99m complexes in guinea pigs (heart uptake, heart/blood)
Conditions: jugular vein injection, 5 minutes, Tc-99m complex
Procedure: The procedures used for determining biodistribution are as follows.
Guinea Pigs--The guinea pigs are anesthetized and the technetium complex is injected into the jugular vein after a cutdown. The animals are sacrificed after 5 minutes and the organs removed and counted as with the rats.
For guinea pigs, significant heart uptake is determined if the percentage of technetium in the heart is greater than 0.5% and the heart/blood ratio is greater than 1.

Compound | 5 Minute Guinea Pig % HT Uptake [%]
COc1cc(COCC(CN=Cc2ccccc2O)(CN=Cc2ccccc2O)CN=Cc2ccccc2O)cc(OC)c1OC (stereo not drawn) [phenol, 2,2'-[[2-[[[(2-hydroxyphenyl)methylene]amino]methyl]-2-(3,4,5-trimethoxyphenyl)methoxymethyl-1,3-propanediyl]bis(nitrilomethylidyne)]bis-] | 1.00
CCCOCC(CN=Cc1c(O)cc(OC)cc1OC)(CN=Cc1c(O)cc(OC)cc1OC)CN=Cc1c(O)cc(OC)cc1OC (stereo not drawn) [3,5-dimethoxyphenol, 2,2'-[[2-[[[(4,6-dimethoxy-2-hydroxyphenyl)methylene]amino]methyl]-2-propoxymethyl-1,3-propanediyl]bis(nitrilomethylidyne)]bis-] | 1.21
Oc1ccccc1C=NCC(CN=Cc1ccccc1O)(CN=Cc1ccccc1O)COCc1ccccc1 (stereo not drawn) [phenol, 2,2'-[[2-[[[(2-hydroxyphenyl)methylene]amino]methyl]-2-phenylmethoxymethyl-1,3-propanediyl]bis(nitrilomethylidyne)]bis-] | 1.60
Oc1c(F)cc(F)cc1C=NCC(CN=Cc1cc(F)cc(F)c1O)(CN=Cc1cc(F)cc(F)c1O)COCc1ccccc1 (stereo not drawn) [2,4-difluorophenol, 2,2'-[[2-[[[(3,5-difluoro-2-hydroxyphenyl)methylene]amino]methyl]-2-phenylmethoxymethyl-1,3-propanediyl]bis(nitrilomethylidyne)]bis-] | 1.72
COc1ccc(COCC(CN=Cc2ccccc2O)(CN=Cc2ccccc2O)CN=Cc2ccccc2O)cc1 (stereo not drawn) [phenol, 2,2'-[[2-[[[2-hydroxyphenyl)methylene]amino]methyl]-2-(4-methoxyphenyl)methoxymethyl-1,3-propanediyl]bis(nitrilomethylidyne)]bis-] | 1.08
COc1cc(COCC(CN=Cc2c(O)cc(OC)c(OC)c2OC)(CN=Cc2c(O)cc(OC)c(OC)c2OC)CN=Cc2c(O)cc(OC)c(OC)c2OC)cc(OC)c1OC (stereo not drawn) [3,4,5-trimethoxyphenol, 2,2'-[[2-[[[(4,5,6-trimethoxy-2-hydroxyphenyl)methylene]amino]methyl]-2-(3,4,5-trimethoxyphenyl)methoxymethyl-1,3-propanediyl]bis(nitrilomethylidyne)]bis-] | 0.98
phenol, 2,2'-[[2-[[[(2-hydroxyphenyl)methylene]amino]methyl]-2-(4-methoxy-4-methyl)pentyl-1,3-propanediyl]bis(nitrilomethylidyne)]bis- | 1.61
COC(C)(C)Cc1ccc(O)c(C=NCC(C)(CN=Cc2cc(CC(C)(C)OC)ccc2O)CN=Cc2cc(CC(C)(C)OC)ccc2O)c1 (stereo not drawn) [4-(2-methoxy-2-methyl-propyl)phenol, 2,2'-[[2-[[[(5-(2-methoxy-2-methyl-propyl)-2-hydroxyphenyl)methylene]amino]methyl]-2-methyl-1,3-propanediyl]bis(nitrilomethylidyne)]bis-] | 0.49
Oc1ccccc1C=NCC(CN=Cc1ccccc1O)(CN=Cc1ccccc1O)COc1cccc2ccccc12 (stereo not drawn) [phenol, 2,2'[[2-[[[(2-hydroxyphenyl)methylene]amino]methyl]-2-α-napthoxymethyl-1,3-propanediyl]bis(nitrilomethylidyne)]bis-] | 0.72

Second part, the compound after the results:

5 Minute Guinea Pig % HT Uptake [%] | Compound
1.01 | COCCOCC(CN=Cc1ccccc1O)(CN=Cc1ccccc1O)CN=Cc1ccccc1O (stereo not drawn) [phenol, 2,2'-[[2-[[[(2-hydroxyphenyl)methylene]amino]methyl]-2-methoxyethoxymethyl-1,3-propanediyl]bis(nitrilomethylidyne)]bis-]
1.23 | CSc1ccc(O)c(C=NCC(C)(CN=Cc2cc(SC)ccc2O)CN=Cc2cc(SC)ccc2O)c1 (stereo not drawn) [R5=H, R6=H, R7=SCH3, R8=H, R3=H, R4=CH3, 4-methylthiophenol, 2,2'-[[2-[[[(5-methylthio-2-hydroxyphenyl)methylene]amino-]methyl]-2-methyl-1,3-propanediyl]bis(nitrilomethylidyne)]bis-]
0.84 | Oc1ccccc1C=NCCN(CCN=Cc1ccccc1O)CCN=Cc1ccccc1O [R5=H, R6=H, R7=H, R8=H, R3=H, R4=--, tris(2-salicylideneiminoethyl)amine]
1.71 | CCOCC(CN=Cc1ccccc1O)(CN=Cc1ccccc1O)CN=Cc1ccccc1O (stereo not drawn) [phenol, 2,2'-[[2-[[[(2-hydroxyphenyl)methylene]amino]methyl]-2-ethoxymethyl-1,3-propanediyl]bis(nitrilomethylidyne)]bis-]
0.72 | CN(C)c1ccc(C=NCC(C)(CN=Cc2ccc(N(C)C)cc2O)CN=Cc2ccc(N(C)C)cc2O)c(O)c1 (stereo not drawn) [3-Dimethylaminophenol, 6,6'-[[2-[[[(4-dimethylamino-2-hydroxy-phenyl)methylene]amino]methyl]-2-methyl-1,3-propanediyl]bis-(nitrilomethylidyne)]bis-]
0.57 | CC(C)OCC(CN=Cc1ccccc1O)(CN=Cc1ccccc1O)CN=Cc1ccccc1O (stereo not drawn) [Phenol, 2,2'-[[2[[[(2-hydroxyphenyl)methylene]amino]methyl]-2-(1-methylethoxy)methyl-1,3-propanediyl]bis(nitrilomethylidyne)]bis-]
1.15 | CCCCCC(CN=Cc1ccccc1O)(CN=Cc1ccccc1O)CN=Cc1ccccc1O (stereo not drawn) [Phenol, 2,2'-[[2[[[(2-hydroxyphenyl)methylene]amino]methyl]-2-pentyl-1,3-propanediyl]bis(nitrilomethylidyne)]bis-]
1.52 | CCCOCC(CN=Cc1cc(OC)ccc1O)(CN=Cc1cc(OC)ccc1O)CN=Cc1cc(OC)ccc1O (stereo not drawn) [4-Methoxyphenyl, 2,2'-[[2-[[[(5-methoxy-2-hydroxyphenyl)methylene]amino]methyl] -2-propoxymethyl-1,3-propanediyl]bis(nitrilomethylidyne)]bis-]
0.98 | CCOc1ccc(C=NCC(C)(CN=Cc2ccc(OCC)cc2O)CN=Cc2ccc(OCC)cc2O)c(O)c1 (stereo not drawn) [3-Ethoxyphenol, 6,6'-[[2[[[(4-ethoxy-2-hydroxyphenyl)methylene]amino]methyl-2-methyl-1,3-propanediyl]bis(nitrilomethylidyne)]bis-]
1.23 | COC(=O)c1ccc(O)c(C=NCC(C)(CN=Cc2cc(C(=O)OC)ccc2O)CN=Cc2cc(C(=O)OC)ccc2O)c1 (stereo not drawn) [methyl-4-hydroxybenzoate, 3,3'-[[2-[[[(5-carbomethoxy-2-hydroxyphenyl)methylene]amino]methyl]-2-methyl-1,3-propanediyl]bis(nitrilomethylidyne)]bis-]
1.79 | CCCOCC(CN=Cc1ccc(C)cc1O)(CN=Cc1ccc(C)cc1O)CN=Cc1ccc(C)cc1O (stereo not drawn) [3-Methylphenol, 6,6'-[[2-[[[(4-methyl-2-hydroxyphenyl)methylene]amino]methyl]-2-propoxymethyl-1,3-propanediyl]bis(nitrilomethylidyne)]bis-]

Experiment: not given
Conditions: literature, Green et al. 1985; cited from earlier work

Compound | overall charge
COc1ccc(O)c(C=NCC(C)(CN=Cc2cc(OC)ccc2O)CN=Cc2cc(OC)ccc2O)c1 (stereo not drawn) [1,1,1-tris (5-methoxysalicyl-aldiminomethyl) ethane] | no overall charge

Experiment: not given
Conditions: in vivo, 5 min

5 Minute Guinea Pig % HT Uptake [%] | Compound
0.66 | CC(=NCC(C)(CN=C(C)c1cc(F)ccc1O)CN=C(C)c1cc(F)ccc1O)c1cc(F)ccc1O (stereo not drawn) [R5=H, R6=H, R7=F, R8=H, R3=CH3, R4=CH3, 1',1',1'-tris(5-fluoro-2-hydroxyacetophenoiminemethyl)ethane]

Experiment: not given
Conditions: in vivo; cited from earlier work

Compound | washout from the heart (images of a dog's heart)
COc1ccc(O)c(C=NCC(C)(CN=Cc2cc(OC)ccc2O)CN=Cc2cc(OC)ccc2O)c1 (stereo not drawn) [1,1,1-tris (5-methoxysalicyl-aldiminomethyl) ethane] | washed out quickly from the heart

Experiment: not given
Conditions: rat, in vivo; cited from earlier work

Compound | washout from the heart (biodistribution data in rats)
COc1ccc(O)c(C=NCC(C)(CN=Cc2cc(OC)ccc2O)CN=Cc2cc(OC)ccc2O)c1 (stereo not drawn) [1,1,1-tris (5-methoxysalicyl-aldiminomethyl) ethane] | washed out quickly from the heart
